The values below come from ChEMBL document CHEMBL1201862, “PubChem BioAssay data set” (2004).

Test systems include Malme-3M; SK-MEL-28; SN12C; EKVX; KM-20L2; DMS-273; OVCAR-3; SF-268; A549; UO-31; SF-539; TK-10; M14; MOLT-4; M19-MEL; DU-145; BT-549; T47D; MDA-MB-435; MDA-N.
Test in all cases: growth of human tumour cells (NCI), 48 h

SMILES strings stand for the structures.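 Each compound was tested at five concentrations against cells in 96-well plates for 48 hours. At the GI50, growth is halved.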 The source made the active and inactive calls. No stated cut-off is given here; in the data, active = GI50 up to about 1.1 µM and inactive = higher.

Take `CCOC(=O)CSC(=O)NCCCl`: the GI50 in the test on Malme-3M, in the test on SK-MEL-28, in the test on SN12C, with EKVX, in the test on KM-20L2 and in the test with DMS-273 was > 100 µM (inactive) each time. Moreover, the GI50 in the test with OVCAR-3, with SF-268, with A549, in the test on UO-31, with SF-539 and with TK-10 was > 100 µM (inactive) throughout. The GI50 in the test on M14 was > 100 µM (inactive).

In the case of `O=C1C(=C2CCCC2)CCC1CN1CCCCC1` (stereo unspecified), the GI50 is 16.3 µM (inactive) in the test with Malme-3M; 17.5 µM (inactive) in the test with SK-MEL-28; 18.5 µM (inactive) in the test on MOLT-4; 16.8 µM (inactive) with SN12C; 18.8 µM (inactive) with EKVX; 17.5 µM (inactive) in the test with KM-20L2. Further, the GI50 in the test on OVCAR-3 is 16.9 µM (inactive); with M19-MEL it was 32.4 µM (inactive); in the test with SF-268, 19.5 µM (inactive); in the test on A549 it was > 100 µM (inactive); in the test with UO-31, > 100 µM (inactive); in the test with SF-539, 21 µM (inactive). Moreover, the GI50 in the test on TK-10 was 14.1 µM (inactive); in the test on M14, 15.7 µM (inactive).

Take `CC1=C(C(=O)NCc2ccccc2)C(c2ccco2)C(C(=O)NCc2ccccc2)=C(C)N1`: the GI50 with Malme-3M was > 100 µM (inactive); in the test on SK-MEL-28, > 100 µM (inactive); in the test on MOLT-4, 23 µM (inactive); in the test on SN12C it was 91.6 µM (inactive); in the test with EKVX, > 100 µM (inactive); in the test with KM-20L2 it was 32.5 µM (inactive). In addition, the GI50 is 66.8 µM (inactive) in the test with DMS-273; > 100 µM (inactive) in the test on OVCAR-3; 80.4 µM (inactive) in the test with SF-268; > 100 µM (inactive) in the test with A549; > 100 µM (inactive) with UO-31; > 100 µM (inactive) in the test on SF-539. Also, the GI50 is 57.4 µM (inactive) in the test with TK-10 and 57 µM (inactive) in the test on M14.

For `CC(=O)Nc1ccc(C(=O)NN2C(=O)C(Cl)C2c2cccc([N+](=O)[O-])c2)cc1` (stereo unspecified), the GI50 with Malme-3M, with SK-MEL-28, in the test on MOLT-4, in the test on OVCAR-3, with M19-MEL and in the test with SF-268 was > 100 µM (inactive) in each case. Moreover, the GI50 with A549, in the test with UO-31, in the test with SF-539 and in the test with TK-10 was > 100 µM (inactive) in each case.

`C/C=C(\C)C(=O)OC1C2C(C)=CC(=O)C(O)C2(C)C2C3(O)OCC24C1OC(=O)C(OC(C)=O)C4C(C)C3O` (stereo unspecified): the GI50 was 0.0375 µM (active) with SK-MEL-28; 0.0375 µM (active) with MOLT-4; 0.0741 µM (active) with SN12C; 0.046 µM (active) with EKVX; 0.0471 µM (active) in the test on KM-20L2; 0.0375 µM (active) in the test with DMS-273. Further, the GI50 in the test on OVCAR-3 was 0.0375 µM (active); in the test with M19-MEL it was 0.0375 µM (active); in the test with SF-268 it was 0.0444 µM (active); in the test on A549, 0.0873 µM (active); in the test on UO-31, 0.195 µM (active).

For the compound `Clc1ccccc1C(n1ncc2ccccc21)n1ncc2ccccc21`, the GI50 with Malme-3M was 33.9 µM (inactive); with SK-MEL-28 it was 53.2 µM (inactive); with MOLT-4 it was 18.9 µM (inactive); with SN12C, 65.2 µM (inactive); in the test on DMS-273, 45.2 µM (inactive); in the test with OVCAR-3, 80.4 µM (inactive). Also, the GI50 was 23.1 µM (inactive) in the test on M19-MEL; 99.3 µM (inactive) with SF-268; 31.3 µM (inactive) in the test on UO-31; 56.9 µM (inactive) in the test on SF-539; 99.8 µM (inactive) in the test on TK-10; 31 µM (inactive) with M14.

Regarding `COc1cc(-c2cc(O)c3cc4c(cc3n2)OCO4)cc(OC)c1OC`, the GI50 in the test with Malme-3M is > 100 µM (inactive); in the test with SK-MEL-28, > 100 µM (inactive); in the test on MOLT-4 it was > 100 µM (inactive); in the test with SN12C, 70.1 µM (inactive); with EKVX, > 100 µM (inactive); in the test with DMS-273, 46.2 µM (inactive). In addition, the GI50 in the test on M19-MEL was > 100 µM (inactive); in the test with A549, > 100 µM (inactive); in the test on UO-31, > 100 µM (inactive); with SF-539 it was 54.8 µM (inactive); with TK-10 it was > 100 µM (inactive); in the test on M14, > 100 µM (inactive).

Regarding `NC1C(O)C(O)C(CO)OC1n1cc(F)c(=O)[nH]c1=O` (stereo unspecified), the GI50 in the test on Malme-3M, with SK-MEL-28, with MOLT-4, in the test on SN12C, with DMS-273 and with SF-268 was > 100 µM (inactive) each time. For the same compound, the GI50 in the test with A549 and with TK-10 was > 100 µM (inactive) each time.

On to `COc1ccc(C(c2ccc(C(C)C)cc(=O)c2O)c2ccc3cccnc3c2O)cc1` (stereo unspecified), for which the GI50 with Malme-3M is 0.398 µM (active); in the test with MOLT-4 it was 0.558 µM (active); with SN12C, 0.415 µM (active); in the test with EKVX it was 1.27 µM (inactive); with DMS-273 it was 0.31 µM (active); in the test with OVCAR-3 it was 1.24 µM (inactive). Further, the GI50 in the test on M19-MEL is 0.484 µM (active); in the test with SF-268, 0.399 µM (active); with A549, 0.328 µM (active); in the test on UO-31, 0.421 µM (active); in the test with SF-539, 0.357 µM (active); in the test on M14, 0.933 µM (active).

Regarding `OC[P+](CO)(CO)C12CC3CC(CC(C3)C1)C2`, the GI50 in the test with Malme-3M is > 100 µM (inactive); in the test on SK-MEL-28, > 100 µM (inactive); with MOLT-4 it was 26.4 µM (inactive); in the test with DU-145 it was > 100 µM (inactive); in the test on BT-549, > 100 µM (inactive); in the test with SN12C it was > 100 µM (inactive). Besides, the GI50 in the test with EKVX is > 100 µM (inactive); in the test on OVCAR-3, > 87.9 µM (inactive); in the test on SF-268, > 100 µM (inactive); in the test on A549 it was > 100 µM (inactive); in the test on T47D it was > 100 µM (inactive); with UO-31, > 78.3 µM (inactive). The GI50 with SF-539, in the test with MDA-MB-435, in the test with MDA-N, with TK-10 and in the test on M14 was > 100 µM (inactive) in each case.

With `Oc1ccc(C(=C(Br)c2ccccc2)c2ccc(O)cc2)cc1`, the GI50 in the test with Malme-3M is 5.52 µM (inactive); in the test on SK-MEL-28, 10.4 µM (inactive); in the test with MOLT-4, 5.48 µM (inactive); with DU-145 it was 13.1 µM (inactive); in the test on BT-549, 4.44 µM (inactive); in the test on SN12C, 5.92 µM (inactive). In addition, the GI50 with EKVX was 11.5 µM (inactive); in the test with OVCAR-3, 3.15 µM (inactive); with SF-268, 4.9 µM (inactive); in the test on A549, 4.4 µM (inactive); in the test on T47D, 10.7 µM (inactive); in the test with UO-31, 6.59 µM (inactive). Moreover, the GI50 in the test on SF-539 is 6.18 µM (inactive); in the test on MDA-MB-435, 1.52 µM (inactive); in the test on MDA-N, 1.83 µM (inactive); in the test on TK-10 it was 13.8 µM (inactive); in the test on M14, 4.15 µM (inactive).

As to `Clc1ccc(OCc2nnc3sc(-c4ccc(-c5ccc(Cl)cc5Cl)o4)nn23)c(Cl)c1`, the GI50 was 18.8 µM (inactive) with Malme-3M; 23.8 µM (inactive) with SK-MEL-28; 18.6 µM (inactive) in the test with MOLT-4; 23.4 µM (inactive) in the test on DU-145; 21.4 µM (inactive) with BT-549; 18.9 µM (inactive) in the test with SN12C. The GI50 was 14.7 µM (inactive) in the test on EKVX; 17.1 µM (inactive) in the test on OVCAR-3; 15.6 µM (inactive) in the test on SF-268; 21.6 µM (inactive) in the test with A549; 19.5 µM (inactive) with T47D; 25.8 µM (inactive) in the test with UO-31. Besides, the GI50 in the test with SF-539 was 14.8 µM (inactive); in the test with MDA-MB-435, 32.8 µM (inactive); with MDA-N, 24.2 µM (inactive); in the test on TK-10 it was 19.5 µM (inactive); in the test with M14, 25.5 µM (inactive).

On to `C=CC1(C)CCC2=C(CCC3C(C)(C(=O)OC)CCCC23C)C1=O` (stereo unspecified), for which the GI50 with Malme-3M was 17.9 µM (inactive); in the test on SN12C, 19 µM (inactive); in the test with EKVX, 18.7 µM (inactive); in the test with KM-20L2, 21.3 µM (inactive); in the test with OVCAR-3, 19.7 µM (inactive); in the test on M19-MEL, 18.7 µM (inactive). Besides, the GI50 in the test on SF-268 is 18.7 µM (inactive); in the test on UO-31 it was 20.8 µM (inactive); in the test on TK-10 it was 19.9 µM (inactive); in the test with M14, 20.8 µM (inactive).

As for `CCCNC(C#N)c1ccc(C(C#N)NCCC)cc1` (stereo unspecified), the GI50 with Malme-3M was > 100 µM (inactive); with SK-MEL-28, > 100 µM (inactive); in the test on MOLT-4, 37.3 µM (inactive); in the test on DU-145, > 100 µM (inactive); in the test on BT-549, > 100 µM (inactive); in the test with SN12C, > 100 µM (inactive). For the same compound, the GI50 in the test with EKVX, with OVCAR-3, in the test with SF-268, with A549, in the test on T47D and with UO-31 was > 100 µM (inactive) in each case. Moreover, the GI50 with SF-539 was > 100 µM (inactive); in the test with MDA-MB-435, 76.4 µM (inactive); in the test with MDA-N it was 36.3 µM (inactive); in the test on TK-10, > 100 µM (inactive); in the test with M14, > 100 µM (inactive).

As to `Cc1c(S(=O)(=O)c2ccccc2)c(N)n(CCN(C)C)c1C`, the GI50 in the test on Malme-3M is > 100 µM (inactive); with SK-MEL-28, > 100 µM (inactive); in the test with MOLT-4 it was > 100 µM (inactive); with DU-145, > 100 µM (inactive); with BT-549, 36.1 µM (inactive); with SN12C, > 100 µM (inactive). For the same compound, the GI50 with EKVX, with OVCAR-3, in the test with SF-268, with A549, in the test on T47D and with UO-31 was > 100 µM (inactive) throughout. In addition, the GI50 in the test on SF-539 is 28.9 µM (inactive); in the test on MDA-MB-435 it was > 100 µM (inactive); in the test on MDA-N, > 100 µM (inactive); with TK-10, > 100 µM (inactive); in the test on M14 it was > 100 µM (inactive).
